# Source: US20240150321A1, “PYRAZOLYLSULFONAMIDE COMPOUNDS AND THEIR USE IN THERAPY” (HOTSPOT THERAPEUTICS, INC., priority 2022, published 2024)
# Experiments:
# [1] = test system: NF-kB reporter in Jurkat cells; test: NF-kB reporter assay in Jurkat cells stimulated with aCD3/aCD28/PMA; type: cell-based; details: Homo sapiens; Jurkat cells, 1 hr compound pre-incubation, aCD3/aCD28/PMA stimulation 4 hr, One-Glo readout; read-out: NF-kB Reporter Assay IC50
# Outline: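 Luminescence (One-Glo) from the NF-kB reporter yielded IC50 values. Stimulation lasted 4 h at 37° C with aCD3, aCD28 and PMA (final 5, 5 and 0.03 […]), after 1 h compound pre-exposure of 25,000 Jurkat cells per well in serum-free RPMI.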
# Avi-tagged FL MALT-1 = Avi-tagged FL MALT-1 (Homo sapiens (Human), UniProt Q9UDY8); test: MALT-1 Fluorogenic Peptide Cleavage Assay (MALT1 inhibition assay); type: biochemical; details: Ac-LRSR-AMC peptide substrate, 30 min pre-incubation, 90 min reaction at room temperature
# Avi-tagged FL MALT-1, sequence (Q9UDY8 whole entry): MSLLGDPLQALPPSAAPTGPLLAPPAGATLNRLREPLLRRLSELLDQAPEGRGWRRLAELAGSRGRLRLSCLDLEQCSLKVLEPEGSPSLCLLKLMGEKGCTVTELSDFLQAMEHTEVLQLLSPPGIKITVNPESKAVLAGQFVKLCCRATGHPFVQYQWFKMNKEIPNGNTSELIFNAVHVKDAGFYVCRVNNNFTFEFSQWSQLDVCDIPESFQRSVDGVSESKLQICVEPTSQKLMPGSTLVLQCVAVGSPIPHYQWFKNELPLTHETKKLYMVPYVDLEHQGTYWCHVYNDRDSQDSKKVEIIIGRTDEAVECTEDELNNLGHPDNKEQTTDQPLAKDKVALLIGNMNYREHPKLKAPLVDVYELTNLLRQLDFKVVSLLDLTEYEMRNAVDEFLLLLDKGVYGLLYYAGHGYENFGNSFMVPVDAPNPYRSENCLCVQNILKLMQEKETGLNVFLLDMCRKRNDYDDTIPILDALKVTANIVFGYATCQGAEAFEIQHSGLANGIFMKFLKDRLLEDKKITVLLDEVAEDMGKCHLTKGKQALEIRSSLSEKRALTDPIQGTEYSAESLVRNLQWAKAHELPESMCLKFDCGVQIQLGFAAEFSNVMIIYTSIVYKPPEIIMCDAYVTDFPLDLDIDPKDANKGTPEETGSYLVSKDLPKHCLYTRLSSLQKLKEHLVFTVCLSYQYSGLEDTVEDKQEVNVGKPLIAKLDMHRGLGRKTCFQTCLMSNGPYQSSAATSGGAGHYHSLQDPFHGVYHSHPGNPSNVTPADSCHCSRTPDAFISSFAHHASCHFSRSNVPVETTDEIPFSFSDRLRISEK
# Outline: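 Cleavage of Ac-LRSR-AMC, read as fluorescence at 342/441 nm after 90 min at room temperature, with substrate working stocks of 50 μM (Km) or 280 μM (10×Km). Enzyme, Avi-tagged full-length MALT-1 (40 nM stock), was first pre-incubated 30 min with compound in citrate/HEPES pH 6.89 buffer with TCEP, EDTA, CHAPS and 2% DMSO; IC50 fitted from normalised % inhibition.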
IC50 [1] [nM],IC50 (Avi-tagged FL MALT-1) [nM],SMILES
< 400,400 to 1000,"COc1ccc2cnn(C)c2c1NS(=O)(=O)c1cnn(-c2cc(C3(F)CC(C)C3)ccn2)c1 (stereo not shown) [Compound I-413, 1-(4-(1-fluoro-3-methylcyclobutyl)pyridin-2-yl)-N-(6-methoxy-1-methyl-1H-indazol-7-yl)-1H-pyrazole-4-sulfonamide]"
> 2500,> 2500,CN1CC[C@@H](n2cc(S(=O)(=O)Nc3cccc4cnn(C)c34)cn2)CC1=O [Compound I-414]
> 2500,> 2500,CN1CC[C@H](n2cc(S(=O)(=O)Nc3cccc4cnn(C)c34)cn2)CC1=O [Compound I-415]
1000 to 2500,> 2500,COc1ncc2cnn(C)c2c1NS(=O)(=O)c1cnn(-c2cc(N3CCOCC3)ccn2)c1 [Compound I-416]
< 400,> 2500,COc1ccc2cnn(C)c2c1NS(=O)(=O)c1cnn(-c2cc(N3CC4CC4C3)ccn2)c1 (stereo not shown) [Compound I-417]
< 400,> 2500,COc1ccc2cnn(C)c2c1NS(=O)(=O)c1cnn(-c2cc(N3CCC(C)CC3)ccn2)c1 [Compound I-418]
< 400,> 2500,COc1ncc2cnn(C)c2c1NS(=O)(=O)c1cnn(-c2cc(N3CC[C@H](C)C3)ccn2)c1 [Compound I-419]
< 400,> 2500,COc1ncc2cnn(C)c2c1NS(=O)(=O)c1cnn(-c2cc(N3CC[C@@H](C)C3)ccn2)c1 [Compound I-420]
< 400,> 2500,"Cn1ncc2cccc(NS(=O)(=O)c3cnn(-c4cc(N5CCC(C)(C)C5)ccn4)c3)c21 [Compound I-421, 1-(4-(3,3-dimethylpyrrolidin-1-yl)pyridin-2-yl)-N-(1-methyl-1H-indazol-7-yl)-1H-pyrazole-4-sulfonamide]"
< 400,> 2500,COc1ccc2cnn(C)c2c1NS(=O)(=O)c1cnn(-c2cc(N3CC[C@H](F)C3)ccn2)c1 [Compound I-422]
< 400,> 2500,COc1ccc2cnn(C)c2c1NS(=O)(=O)c1cnn(-c2cc(N3CC[C@@H](F)C3)ccn2)c1 [Compound I-423]
< 400,> 2500,COc1ncc2cnn(C)c2c1NS(=O)(=O)c1cnn(-c2cc(N3CCC4(CC4)C3)ccn2)c1 [Compound I-424]
< 400,> 2500,COc1ncc2cnn(C)c2c1NS(=O)(=O)c1cnn(-c2cc(N3CCC(C)(C)C3)ccn2)c1 [Compound I-425]
< 400,> 2500,COc1ncc2cnn(C)c2c1NS(=O)(=O)c1cnn(-c2cc(N3CC[C@H](F)C3)ccn2)c1 [Compound I-426]
400 to 1000,> 2500,COc1ncc2cnn(C)c2c1NS(=O)(=O)c1cnn(-c2cc(N3CC[C@@H](F)C3)ccn2)c1 [Compound I-427]
< 400,400 to 1000,"COc1ncc2cnn(C)c2c1NS(=O)(=O)c1cnn(-c2cc(N3CCC(F)(F)C3)ccn2)c1 [Compound I-428, 1-(4-(3,3-difluoropyrrolidin-1-yl)pyridin-2-yl)-N-(6-methoxy-1-methyl-1H-pyrazolo[4,3-c]pyridin-7-yl)-1H-pyrazole-4-sulfonamide]"
< 400,> 2500,"Cn1ncc2cccc(NS(=O)(=O)c3cnn(-c4cc(N5CC[C@H](F)C5)ccn4)c3)c21 [Compound I-429, 1-{4-[(3S)-3-fluoropyrrolidin-1-yl]pyridin-2-yl}-N-(1-methylindazol-7-yl) pyrazole-4-sulfonamide]"
< 400,> 2500,"Cn1ncc2cccc(NS(=O)(=O)c3cnn(-c4cc(N5CC[C@@H](F)C5)ccn4)c3)c21 [Compound I-430, 1-{4-[(3R)-3-fluoropyrrolidin-1-yl]pyridin-2-yl}-N-(1-methylindazol-7-yl)pyrazole-4-sulfonamide]"
< 400,> 2500,"Cn1ncc2cccc(NS(=O)(=O)c3cnn(-c4cc(N5CCC(F)(F)C5)ccn4)c3)c21 [Compound I-431, 1-[4-(3,3-difluoropyrrolidin-1-yl)pyridin-2-yl]-N-(1-methylindazol-7-yl)pyrazole-4-sulfonamide]"

IC50 [1] [nM],IC50 (Avi-tagged FL MALT-1) [nM],SMILES
< 400,400 to 1000,"COc1ccc2cnn(C)c2c1NS(=O)(=O)c1cnn(-c2cc(N3CC4CC3C4)ccn2)c1 [Compound I-432, 1-(4-(2-azabicyclo[2.1.1]hexan-2-yl)pyridin-2-yl)-N-(6-methoxy-1-methyl-1H-indazol-7-yl)-1H-pyrazole-4-sulfonamide]"
< 400,> 2500,COc1ccc2cnn(C)c2c1NS(=O)(=O)c1cnn(-c2cc(N3CCC4(CC4)C3)ccn2)c1 [Compound I-433]
< 400,> 2500,COc1ccc2cnn(C)c2c1NS(=O)(=O)c1cnn(-c2cc(N3CCC(C)(C)C3)ccn2)c1 [Compound I-434]
< 400,> 2500,"COc1ccc2cnn(C)c2c1NS(=O)(=O)c1cnn(-c2cc(N3CCC(F)(F)C3)ccn2)c1 [Compound I-435, 1-(4-(3,3-difluoropyrrolidin-1-yl)pyridin-2-yl)-N-(6-methoxy-1-methyl-1H-indazol-7-yl)-1H-pyrazole-4-sulfonamide]"
< 400,1000 to 2500,COc1ncc2cnn(C)c2c1NS(=O)(=O)c1cnn(-c2cc(N3CC4CC3C4)ccn2)c1 [Compound I-436]
< 400,> 2500,"CN(C)c1ccnc(-n2cc(S(=O)(=O)Nc3cccc4cnn(C)c34)cn2)c1 [Compound I-437, 1-[4-(dimethylamino)pyridin-2-yl]-N-(1-methylindazol-7-yl)pyrazole-4-sulfonamide]"
< 400,> 2500,"Cn1ncc2cccc(NS(=O)(=O)c3cnn(-c4cc(N5CC(F)C5)ccn4)c3)c21 [Compound I-438, 1-[4-(3-fluoroazetidin-1-yl)pyridin-2-yl]-N-(1-methylindazol-7-yl)pyrazole-4-sulfonamide]"
< 400,> 2500,"Cn1ncc2cccc(NS(=O)(=O)c3cnn(-c4cc(N5CC(F)(F)C5)ccn4)c3)c21 [Compound I-439, 1-[4-(3,3-difluoroazetidin-1-yl)pyridin-2-yl]-N-(1-methylindazol-7-yl) pyrazole-4-sulfonamide]"
< 400,> 2500,"Cn1ncc2cccc(NS(=O)(=O)c3cnn(-c4cc(N5CC(C)(F)C5)ccn4)c3)c21 [Compound I-440, 1-[4-(3-fluoro-3-methylazetidin-1-yl)pyridin-2-yl]-N-(1-methylindazol-7-yl)pyrazole-4-sulfonamide]"
< 400,> 2500,"COC1CN(c2ccnc(-n3cc(S(=O)(=O)Nc4cccc5cnn(C)c45)cn3)c2)C1 [Compound I-441, 1-(4-(3-methoxyazetidin-1-yl)pyridin-2-yl)-N-(1-methyl-1H-indazol-7-yl)-1H-pyrazole-4-sulfonamide]"
< 400,1000 to 2500,COc1ccc2cnn(C)c2c1NS(=O)(=O)c1cnn(-c2cc(N3CC(F)C3)ccn2)c1 [Compound I-442]
< 400,1000 to 2500,"COc1ccc2cnn(C)c2c1NS(=O)(=O)c1cnn(-c2cc(N3CC(F)(F)C3)ccn2)c1 [Compound I-443, 1-[4-(3,3-difluoroazetidin-1-yl)pyridin-2-yl]-N-(6-methoxy-1-methylindazol-7-yl)pyrazole-4-sulfonamide]"
< 400,> 2500,"COc1ccc2cnn(C)c2c1NS(=O)(=O)c1cnn(-c2cc(N3CC(C)(F)C3)ccn2)c1 [Compound I-444, 1-(4-(3-fluoro-3-methylazetidin-1-yl)pyridin-2-yl)-N-(6-methoxy-1-methyl-1H-indazol-7-yl)-1H-pyrazole-4-sulfonamide]"
< 400,> 2500,COc1ccc2cnn(C)c2c1NS(=O)(=O)c1cnn(-c2cc(N3CC(OC)C3)ccn2)c1 [Compound I-445]
< 400,> 2500,"COC1(C)CN(c2ccnc(-n3cc(S(=O)(=O)Nc4cccc5cnn(C)c45)cn3)c2)C1 [Compound I-446, 1-[4-(3-methoxy-3-methylazetidin-1-yl)pyridin-2-yl]-N-(1-methylindazol-7-yl)pyrazole-4-sulfonamide]"
400 to 1000,> 2500,"Cn1ncc2cccc(NS(=O)(=O)c3cnn(-c4cnn5c4COCCC5)c3)c21 [Compound I-447, 1-(7,8-Dihydro-4H,6H-Pyrazolo[5,1-C][1,4]Oxazepin-3-yl)-N-(1-Methyl-1H-Indazol-7-yl)-1H-Pyrazole-4-Sulfonamide]"
< 400,> 2500,"Cn1ncc2cccc(NS(=O)(=O)c3cnn(-c4cc(C5(C#N)CCCC5)ccn4)c3)c21 [Compound I-448, 1-(4-(1-cyanocyclopentyl)pyridin-2-yl)-N-(1-methyl-1H-indazol-7-yl)-1H-pyrazole-4-sulfonamide]"
< 400,1000 to 2500,"COc1ccc2cnn(C)c2c1NS(=O)(=O)c1cnn(-c2cc(C3(C#N)CCCC3)ccn2)c1 [Compound I-449, 1-(4-(1-cyanocyclopentyl)pyridin-2-yl)-N-(6-methoxy-1-methyl-1H-indazol-7-yl)-1H-pyrazole-4-sulfonamide]"
< 400,> 2500,"Cn1ncc2cccc(NS(=O)(=O)c3cnn(-c4cc(N5CC(C)(C#N)C5)ccn4)c3)c21 [Compound I-450, 1-(4-(3-cyano-3-methylazetidin-1-yl)pyridin-2-yl)-N-(1-methyl-1H-indazol-7-yl)-1H-pyrazole-4-sulfonamide]"
